The term melting point denotes the temperature, or range, at which the solid turns liquid.

`NC1=NNC(=O)C1=Cc1c[nH]c2ncccc12` [Example 337, 3-Amino-4-[(7-azaindol-3-yl)methylene]-2-pyrazolin-5-one] showed a melting point greater than 300 °C. `COc1ccc(CC2=NNC(=O)C2=Cc2c[nH]c3ncccc23)cc1` [Example 338, 4-[(7-Azaindol-3-yl)methylene]-3-(4-methoxybenzyl)-2-pyrazolin-5-one] showed a melting point of 273 to 276 °C. `O=C1NN=C(Nc2ccccc2)C1=Cc1c[nH]c2ncccc12` [Example 339, 4-[(7-Azaindol-3-yl)methylene]-3-phenylamino-2-pyrazolin-5-one] had a melting point of 249 to 252 °C. Consider `Cc1ccc(CC2=NNC(=O)C2=Cc2c[nH]c3ncccc23)cc1` [Example 340, 4-[(7-Azaindol-3-yl)methylene]-3-(4-methylbenzyl)-2-pyrazolin-5-one], for which the melting point was greater than 300 °C. Compound `O=C1NN=C(CCc2ccc(O)cc2)C1=Cc1c[nH]c2ncccc12` [Example 341, 4-[(7-Azaindol-3-yl)methylene]-3-(4-hydroxyphenylethyl)-2-pyrazolin-5-one] returned a melting point of 270 to 272 °C. On to `O=C1NN=C(CCc2ccc(O)cc2)C1=Cc1cn(CCCCO)c2ncccc12` [Example 342, 4-{[1-(4-Hydroxybutyl)-7-azaindol-3-yl]methylene}-3-(4-hydroxyphenylethyl)-2-pyrazolin-5-one], for which the melting point fell in the range of 211 to 212 °C.

In the case of `CC(C)C1=NNC(=O)C1=Cc1c[nH]c2ncccc12` [Example 343, 4-[(7-Azaindol-3-yl)methylene]-3-isopropyl-2-pyrazolin-5-one], the melting point was 300 °C (dec.).

`O=C1NN=C(C2CC2)C1=Cc1c[nH]c2ncccc12` [Example 344, 4-[(7-Azaindol-3-yl)methylene]-3-cyclopropyl-2-pyrazolin-5-one]: the melting point was 245 to 246 °C. Turning to `O=C1NN=C(C2CCC2)C1=Cc1c[nH]c2ncccc12` [Example 345, 4-[(7-Azaindol-3-yl)methylene]-3-cyclobutyl-2-pyrazolin-5-one], the melting point lay within 300 to 302 °C. For `O=C1NN=C(c2ccccc2)C1=Cc1c[nH]c2ncccc12` [Example 347, 4-[(7-Azaindol-3-yl)methylene]-3-phenyl-2-pyrazolin-5-one], the melting point lay in the range of 280 to 282 °C. The figure for `O=C1NN=C(CCc2ccccc2)C1=Cc1c[nH]c2ncccc12` [Example 357, 4-[(7-Azaindol-3-yl)methylene]-3-phenylethyl-2-pyrazolin-5-one] is 317 to 319 °C; for `CN(C)c1ccc(C=C2C(=O)NN=C2Cc2ccccc2)cc1` [Example 358, 3-Benzyl-4-[(4-dimethylaminophenyl)methylene]-2-pyrazolin-5-one] it is 253 to 255 °C. As to `CC(C)OC1=NNC(=O)C1=Cc1ccc(N(C)C)cc1` [Example 359, 4-[(4-Dimethylaminophenyl)methylene]-3-isopropoxy-2-pyrazolin-5-one], the melting point lay in the range of 197 to 198 °C. As for `CN(C)c1ccc(C=C2C(=O)NN=C2CCc2ccccc2)cc1` [Example 360, 4-[(4-Dimethylaminophenyl)methylene]-3-phenylethyl-2-pyrazolin-5-one], the melting point is 224 to 225 °C. Compound `CN(C)c1ccc(C=C2C(=O)NN=C2C2CC2)cc1` [Example 361, 3-Cyclopropyl-4-[(4-dimethylaminophenyl)methylene]-2-pyrazolin-5-one] gave a melting point of 280 to 289 °C. Compound `Cc1n[nH]cc1C=C1C(=O)NN=C1OC(C)C` [Example 362, 3-Isopropoxy-4-[(3-methylpyrazol-4-yl)methylene]-2-pyrazolin-5-one] yielded a melting point of 228 to 230 °C. The figure for `Cc1n[nH]cc1C=C1C(=O)NN=C1C1CC1` [Example 363, 3-Cyclopropyl-4-[(3-methylpyrazol-4-yl)methylene]-2-pyrazolin-5-one] is 265 to 267 °C; for `CC(C)OC1=NNC(=O)C1=Cc1ncc[nH]1` [Example 364, 4-[(Imidazol-2-yl)methylene]-3-isopropoxy-2-pyrazolin-5-one] it is 212 to 214 °C. Compound `O=C1NN=C(C2CC2)C1=Cc1ncc[nH]1` [Example 365, 3-Cyclopropyl-4-[(imidazol-2-yl)methylene]-2-pyrazolin-5-one] came in with a melting point of 264 to 266 °C.

Regarding `CC(C)OC1=NNC(=O)C1=Cc1c[nH]cn1` [Example 366, 4-[(Imidazol-4-yl)methylene]-3-isopropoxy-2-pyrazolin-5-one], the melting point lay in the range of 259 to 260 °C. On to `O=C1NN=C(C2CC2)C1=Cc1cccs1` [Example 367, 3-Cyclopropyl-4-[(thien-2-yl)methylene]-2-pyrazolin-5-one], for which the melting point fell in the range of 275 to 277 °C. The figure for `CC(C)C1=NN(C)C(=O)C1=Cc1c[nH]c2ccccc12` [Example 368, 4[(Indol-3-yl)methylene]-3-isopropyl-1-methyl-2-pyrazolin-5-one] is 241 to 242 °C; for `CC(C)OC1=NNC(=O)C1=Cc1cc[nH]c1` [Example 369, 3-Isopropoxy-4-[(pyrrol-3-yl)methylene]-2-pyrazolin-5-one] it is 252 to 255 °C. With `CC(C)OC1=NNC(=O)C1=Cc1ccc(O)c2ncccc12` [Example 370, 4-[(8-Hydroxyquinolin-5-yl)methylene]-3-isopropoxy-2-pyrazolin-5-one], the melting point was greater than 300 °C.

Values taken from patent US7060822B1, “2-pyrazolin-5-ones” (Abbott GmbH & Co. KG, priority 1999, dated 2006).
